Where two headings read alike, the source gives them in different places.
What was measured:
[1] = system: I/H-induced ET-1 release in isolated perfused guinea pig lungs; experiment: Isolated Perfused Guinea Pig Lung Method (ischemia/hypoxia, I/H); assay type: in vivo; conditions: iv, 10 mg/kg
Protocol: The method is as described by Vemulapalli et al., in J. PharmacoL Exp. Therap., 262, 3 (1992), pp. 1062-1069. Briefly, male Dunkin-Hartley guinea pigs (400-600 g) are anesthetized with pentobarbital 30 mg/kg, ip. The trachea is cannulated to facilitate respiration. The right jugular vein is cannulated to administer saline vehicle or test compound, or compounds are administered orally or subcutaneously. Ten minutes after the administration of saline vehicle or test compound, a thoracotomy is performed and the trachea, lungs and heart are removed intact and placed in warmed Tyrode's buffer (34°-35° C.) of the following composition in mM: NaCl 120, KCl 4.8, MgSO4.7H2 O 1.2, KH2 PO4 1.2, NaHCO3 25, CaCl2.2H2 O […], glucose 11 and BSA 0.5%. The pulmonary artery and trachea are cannulated and the lungs are mounted on a perfusion apparatus. Lungs are perfused at a rate of 3.2 ml/min via the pulmonary artery with oxygenated (95% O 2 and 5% CO2) Tyrode's solution maintained at 34°-35° C. The lungs are mechanically ventilated with room air with a volume of 2.5 ml/stroke and 50 strokes/min. Pulmonary insufflation pressure (PIP) is monitored through a side arm of the perfusion apparatus with a Statham pressure transducer and recorded on a Grass polygraph. Lungs are allowed to stabilize for 15 min. Lung effluents (50 ml) are collected every 15 min into chilled polypropylene centrifuge tubes (Corning) containing 100 μl each of aprotinin (200 kallikrein inhibitory units/ml) and soybean trypsin inhibitor (20N-α-benzoyl-L-arginine ethyl ester units/ml). Ischemia-hypoxia (I/H) is produced by cessation of ventilation and perfusion for 15 min followed by reperfusion and reventilation for 60 min. At the end of the experiment, the lungs are tested for cardiopulmonary reactivity by challenging with 5-hydroxy-tryptamine (0.5 mg) directly into the lungs via a pulmonary artery cannula.
In a separate study, anesthetized guinea pigs are administered saline vehicle or test compound. Ten minutes later, the lungs are removed and mounted on a perfusion apparatus as described above. After an equilibration period of 15 min, BET-1 (30 μg over 15 min) or ET-1 (0.6 μg over 15 min) is infused directly into the perfusion medium and the effects on PIP in vehicle and test compound-treated guinea pig lungs are assessed.
FIGS. 3 to 6 show the results of four compounds of the invention on I/H-induced ET-1 release in isolated perfused guinea pig lungs. The compounds include Compounds A and B, identified above, and: […]

[2] = target: T1, ECE (Cavia porcellus, UniProt P97739); experiment: In vitro ECE assay (inhibition of [125I]BET-1 to [125I]ET-1 conversion, lubrol-treated guinea pig lung membrane); assay type: biochemical; conditions: L-GPLGM
T1 construct: tissue Keystone Biologicals, Cleveland, Ohio; host or cells: frozen guinea pig lungs; lubrol PX-treated lung membranes
T1 sequence (P97739 1-754): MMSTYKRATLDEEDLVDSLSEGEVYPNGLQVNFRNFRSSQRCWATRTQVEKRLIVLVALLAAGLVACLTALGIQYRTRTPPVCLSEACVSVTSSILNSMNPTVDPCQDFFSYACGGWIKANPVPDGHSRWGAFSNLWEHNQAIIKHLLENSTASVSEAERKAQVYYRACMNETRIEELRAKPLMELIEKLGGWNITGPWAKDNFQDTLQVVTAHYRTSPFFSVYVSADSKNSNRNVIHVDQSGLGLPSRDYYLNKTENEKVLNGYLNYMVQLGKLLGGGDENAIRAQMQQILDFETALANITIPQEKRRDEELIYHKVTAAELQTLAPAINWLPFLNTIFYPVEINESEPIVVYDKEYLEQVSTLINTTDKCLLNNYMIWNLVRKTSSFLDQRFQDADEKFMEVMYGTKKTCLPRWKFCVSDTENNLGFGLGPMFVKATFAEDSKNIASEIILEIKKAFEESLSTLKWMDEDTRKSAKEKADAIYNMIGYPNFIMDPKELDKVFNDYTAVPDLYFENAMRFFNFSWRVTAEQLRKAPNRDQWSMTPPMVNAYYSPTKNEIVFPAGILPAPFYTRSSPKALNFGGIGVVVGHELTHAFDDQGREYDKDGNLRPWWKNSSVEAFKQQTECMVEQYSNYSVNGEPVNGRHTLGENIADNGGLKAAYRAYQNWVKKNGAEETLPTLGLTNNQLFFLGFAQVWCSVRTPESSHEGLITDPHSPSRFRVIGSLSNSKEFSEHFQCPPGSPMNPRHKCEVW
From the text: The ECE assay is based on the quantitative determination of [^125 l]ET-1 released from [^125 l]BET-1 labeled on Tyrosine-13 by binding to the membrane-bound ET receptor. […] GPLGM was also found to contain a high density of ET receptors. Thus, this preparation was utilized as a source of both ECE and a saturating concentration of ET receptors for the quantitative determination of [251l]ET-1 from the conversion of [125l ]BET-1. Under selected experimental conditions of the ECE assay, specific [125l]ET-1 bound was directly related to ECE activity. Assays were carried out in the presence of varying concentrations of test compounds to evaluate their efficacy in inhibiting ECE activity.
Frozen guinea pig lungs (Keystone Biologicals,Cleveland, Ohio) are weighed and homogenized in 10 times gram tissue weight of solution A (50 mM Tris-HCl, pH 7.4, 0.25M sucrose, and 2 mM EDTA) using a Polytron tissue homogenizer (probe PTA-20S). Homogenization is repeated four times at speed setting seven each for 10 s and with 5-8 min intervals on ice in between homogenization. Homogenates are spun for 30 min at 2000 g (4100 rpm in an SS34 rotor or 3800 rpm in an SA-600 rotor). Supernatants containing membranes are carefully decanted and saved. Pellets are rehomogenized in solution A as described, and homogenates are spun at 2000 g for 30 min. Supernatants are removed, mixed with the supernatants from the first spin, and spun at 37000 rpm in a 45 Ti rotor (107022 g) for 60 min. Pellets containing membranes are suspended in solution B (10 mM Tris-HCl, pH 7.4, and 0.125M sucrose) using a Dounce homogenizer. Samples are divided into 1 ml fractions, rapidly frozen in a dry ice methanol bath, and stored at -80° C. All steps are carried out at 4° C.
GPLGM fractions prepared as described above are thawed and resuspended at a concentration of 1 mg membrane protein/mL in a solution containing 0.06% lubrol PX, 50 mM Tris-HCl (pH 7.4), and 100 mM NaCl. Stir the mixture for 1 h and then spin for 1 h at 37000 rpm in a 45 Ti rotor (107022 g). Discard the supernatants and resuspend the pellets in a solution containing 50 mM Tris-HCl (pH 7.4), and 100 mM NaCl using a Dounce homogenizer, and adjust the final volume to half the original volume. Spin the homogenates for 1 h at 37000 rpm in a 45 Ti rotor (107022 g). Suspend the membrane pellets in solution B and treat as described above. All steps are performed at 4° C.
ECE Assay: Samples of L-GPLGM containing 20 μg protein are incubated in a solution containing 100 mM Tris-HCl (pH 7), 100 mM NaCl, and 5 mg/ml BSA (Fraction V, 98-99% albumin) (Sigma Chemical Co.) at a final reaction volume of 100 μL. The ECE assay is initiated by the addition of [^125 l]BET-1 to obtain a final concentration of 500 pM. Reactions are carried out for 30 min at 37° C. Reactions are terminated by addition of 4 mL of solution C (10 mM Tris-HCl, pH 7.4, and 150 mM NaCl) at 4° C. followed by rapid filtration on Whatman GF/B glass microfiber filters. Filters are presoaked for 1 h at 4° C. in a solution containing 50 mM Tris-HCl (pH 7.4), 10 mg/mL BSA, and 0.1% sodium azide. Wash test tubes and filters four times with 4 mL of solution C at 4° C., and count radioactivity retained on the filters in a γ counter. Non-specific binding is determined in the presence of 1 μM of unlabeled ET-1 (Peninsula Laboratories, Inc., Belmont, Calif.) in the reaction mixture. All reactions are performed in duplicate.
To test the effect of test compounds on ECE activity, ECE assays are carried out in the presence of varying concentrations of the compounds. Assays are initiated following a 2 h incubation of L-GPLGM with the compound at 4° C. ECE activity in the presence of compounds is expressed as a percentage of control ECE activity of the membrane preparation, which is determined simultaneously.

[3] = table of additional compounds, read-out: IC50 (in vitro ECE inhibition activity)
[4] = 2 h preincubation at 4° C., 500 pM [125I]BET-1, table of examples, read-out: ECE IC50

CC(C)C(CP(=O)(O)C(Cc1ccccc1)NC(=O)C(CCCCN)NS(C)(=O)=O)C(=O)N[C@@H](Cc1c[nH]c2ccccc12)C(=O)O (some centres unmarked) [Compound C] was tested, and the “elevation in PIP produced by I/H (FIG. 5)” value [1] was “attenuated”.
For CC(C)CC(CP(=O)(O)C(CC1CCCC1)NC(=O)OCc1ccccc1)C(=O)N[C@@H](Cc1c[nH]c2ccccc12)C(=O)O (some centres unmarked) [Cbz, cyclopentylmethyl, H, iso-butyl], the IC50 [2, 3] was 1000 nM.
O=C(NC(Cc1ccc(C(=O)N2CCOCC2)cc1)P(=O)(O)CC1(C(=O)N[C@@H](Cc2c[nH]c3ccccc23)C(=O)O)CCCC1)OCc1ccccc1 (some centres unmarked) [Example 7] was tested, and the IC50 [2, 4] was 50 nM.
Work on O=C(N[C@@H](Cc1ccccc1)P(=O)(O)CC1(C(=O)N[C@@H](Cc2c[nH]c3ccccc23)C(=O)O)CCCC1)c1ccccc1 [Example 6.2B] yielded an IC50 [2, 4] of 250 nM.
CC(C)CC(CP(=O)(O)C(CCCCN)NC(=O)OCc1ccccc1)C(=O)N[C@@H](Cc1c[nH]c2ccccc12)C(=O)O (some centres unmarked) [Cbz, NH 2(CH2)4, H, iso-butyl] was tested, and the IC50 [2, 3] was 400 nM.
CC(C)CC(NC(=O)C(CCCCNC(=O)OCc1ccccc1)NS(C)(=O)=O)P(=O)(O)CC1(C(=O)N[C@@H](Cc2c[nH]c3ccccc23)C(=O)O)CCCC1 (some centres unmarked) was tested, and the IC50 [2, 3] was 260 nM.
Compound CC(C)CC(CP(=O)(O)C(Cc1ccccc1)NC(=O)C(CCCCNC(=O)OCc1ccccc1)NS(C)(=O)=O)C(=O)N[C@@H](Cc1c[nH]c2ccccc12)C(=O)O (some centres unmarked) has an IC50 [2, 3] of 500 nM.
NCc1ccc(C(=O)N[C@@H](Cc2ccccc2)P(=O)(O)CC2(C(=O)N[C@@H](Cc3c[nH]c4ccccc34)C(=O)O)CCCC2)cc1 [Example 6] was tested, and the IC50 [2, 4] was 90 nM.
Work on COc1ccc(CC(NC(=O)[C@H](CCCCN)NS(C)(=O)=O)P(=O)(O)CC2(C(=O)N[C@@H](Cc3c[nH]c4ccccc34)C(=O)O)CCCC2)cc1 (some centres unmarked) [Example 5A] yielded an IC50 [2, 4] of 40 nM.
In the case of CS(=O)(=O)N[C@@H](CCCCN)C(=O)N[C@@H](Cc1ccccc1)P(=O)(O)CC1(C(=O)N[C@@H](Cc2ccc(O)cc2)C(=O)O)CCCC1 [Example 5C], the IC50 [2, 4] is reported as 100 nM.
In the case of CC(C)CC(CP(=O)(O)C(CC(C)C)NC(=O)[C@H](CCCCNC(=O)OCc1ccccc1)NS(C)(=O)=O)C(=O)N[C@@H](Cc1c[nH]c2ccccc12)C(=O)O (single isomer, unassigned) [Example 10A], the IC50 [2, 4] is reported as 40 nM.
With CS(=O)(=O)N[C@@H](CCCCNC(=O)OCc1ccccc1)C(=O)NC(Cc1ccc2ccccc2c1)P(=O)(O)CC1(C(=O)N[C@@H](Cc2c[nH]c3ccccc23)C(=O)O)CCCC1 (some centres unmarked) [Example 3C] the IC50 [2, 4] was 55 nM.
Work on CC(C)CC(CP(=O)(O)C(CC(C)C)NC(=O)C(CCCCNC(=O)OCc1ccccc1)NS(C)(=O)=O)C(=O)N[C@@H](Cc1c[nH]c2ccccc12)C(=O)O (some centres unmarked) yielded an IC50 [2, 3] of 1400 nM.
Work on CC(C)CC(CP(=O)(O)C(CCCCO)NC(=O)OCc1ccccc1)C(=O)N[C@@H](Cc1c[nH]c2ccccc12)C(=O)O (some centres unmarked) [Cbz, HO(CH2)4, H, iso-butyl] yielded an IC50 [2, 3] of 200 nM.
CC(C)CC(CP(=O)(O)C(Cc1ccc2ccccc2c1)NC(=O)OCc1ccccc1)C(=O)N[C@@H](Cc1c[nH]c2ccccc12)C(=O)O (some centres unmarked) [Cbz, 2-naphthylmethyl, H, iso-butyl] gave an IC50 [2, 3] of 300 nM.
CC(C)CC(CP(=O)(O)C(Cc1ccc2ccccc2c1)NC(=O)C(CCCCN)NS(C)(=O)=O)C(=O)N[C@@H](Cc1c[nH]c2ccccc12)C(=O)O (single isomer, unassigned) [listing 1 of 2 here] was tested, and the IC50 [2, 3] was 60 nM.
Compound CC(C)C(CP(=O)(O)C(Cc1ccccc1)NC(=O)C(CCCCNC(=O)OCc1ccccc1)NS(C)(=O)=O)C(=O)N[C@@H](Cc1c[nH]c2ccccc12)C(=O)O (single isomer, unassigned) has an IC50 [2, 3] of 1500 nM.
CC(C)CC(CP(=O)(O)C(Cc1ccc2ccccc2c1)NC(=O)C(CCCCN)NS(C)(=O)=O)C(=O)N[C@@H](Cc1c[nH]c2ccccc12)C(=O)O (single isomer, unassigned) [listing 2 of 2 here] was tested, and the IC50 [2, 3] was 27 nM.
Work on CC(C)CC(CP(=O)(O)C(CCCCO)NC(=O)[C@H](CC(C)C)NS(C)(=O)=O)C(=O)N[C@@H](Cc1c[nH]c2ccccc12)C(=O)O (some centres unmarked) [Example 10D] yielded an IC50 [2, 4] of 150 nM.
COc1ccc(CC(NC(=O)[C@H](CCCCNC(=O)OCc2ccccc2)NS(C)(=O)=O)P(=O)(O)CC2(C(=O)N[C@@H](Cc3c[nH]c4ccccc34)C(=O)O)CCCC2)cc1 (some centres unmarked) [Example 3A] was tested, and the IC50 [2, 4] was 50 nM.

Reference: patent publication US5476847A, “Derivatives of phosphinic acid useful as endothelin converting enzyme inhibitors” (priority 1994, dated 1995)
